IC50 data for 2 compounds are collected here from ChEMBL document CHEMBL1159019, “A strategy for identifying novel, mechanistically unique inhibitors of topoisomerase I” (J Nat Prod, 1992).

Molecules are shown by their SMILES.

For test [1], the target named is T1, DNA topoisomerase 1 (Homo sapiens, UniProt P11387).
T1 sequence (P11387 whole entry): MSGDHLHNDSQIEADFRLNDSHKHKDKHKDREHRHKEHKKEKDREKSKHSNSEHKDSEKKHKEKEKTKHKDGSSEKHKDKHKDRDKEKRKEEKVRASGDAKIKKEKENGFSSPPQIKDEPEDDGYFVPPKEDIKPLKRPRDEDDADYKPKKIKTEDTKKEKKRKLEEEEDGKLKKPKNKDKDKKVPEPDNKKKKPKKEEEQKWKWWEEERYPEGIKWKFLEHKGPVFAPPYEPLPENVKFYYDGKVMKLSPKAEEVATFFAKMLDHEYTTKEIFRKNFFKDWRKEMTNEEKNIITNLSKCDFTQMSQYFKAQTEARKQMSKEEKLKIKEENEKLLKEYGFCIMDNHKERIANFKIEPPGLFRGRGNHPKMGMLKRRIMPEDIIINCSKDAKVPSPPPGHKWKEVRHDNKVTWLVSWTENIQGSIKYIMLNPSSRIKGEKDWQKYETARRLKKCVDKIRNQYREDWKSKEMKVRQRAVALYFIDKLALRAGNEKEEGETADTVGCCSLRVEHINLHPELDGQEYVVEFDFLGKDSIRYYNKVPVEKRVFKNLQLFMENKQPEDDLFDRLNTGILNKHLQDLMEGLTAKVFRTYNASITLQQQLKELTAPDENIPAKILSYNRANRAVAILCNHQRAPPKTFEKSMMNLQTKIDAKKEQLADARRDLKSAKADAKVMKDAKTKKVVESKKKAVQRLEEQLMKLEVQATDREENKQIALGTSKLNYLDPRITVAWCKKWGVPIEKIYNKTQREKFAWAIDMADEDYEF
Put plainly: Inhibition of human COLO201 cellular topoisomerase-1 mediated plasmid DNA cleavage by electrophoresis in presence of 14 units of enzyme.

Test [2] deals with T1, DNA topoisomerase 1. The test is described as follows: Inhibition of human COLO201 cellular topoisomerase-1 mediated plasmid DNA cleavage by electrophoresis in presence of 70 units of enzyme.

On to `O=C(O)C[C@@H]1C(=O)O[C@H]2[C@@H]3OC(=O)c4cc(O)c(O)c(O)c4-c4c(cc(O)c(O)c4O)C(=O)OC[C@H]2O[C@@H](OC(=O)c2cc(O)c(O)c(O)c2)[C@@H]3OC(=O)c2cc(O)c(O)c3c2[C@H]1[C@H](O)C(=O)O3` [CHEBULAGIC ACID], for which the IC50 was 0.05 µM on DNA topoisomerase 1 [1] and 0.1 µM on DNA topoisomerase 1 [2].
Regarding `O=C(O[C@@H]1O[C@@H]2COC(=O)c3cc(O)c(O)c(O)c3-c3c(cc(O)c(O)c3O)C(=O)O[C@H]([C@H]1O)[C@@H]2O)c1cc(O)c(O)c(O)c1` [CORILAGIN], the 50% inhibitory concentration (IC50) on DNA topoisomerase 1 [2] was 40 µM.
